Assay results reported in publication PMC7082846 (ACS infectious diseases, 2019).
≈ marks a conversion by molar mass, not a printed value. Where “and” joins values, the source holds several entries; their conditions need not be identical. Identical values can stand only once.

Assays:
[1] = molecular target: T1, human STING (Homo sapiens, UniProt Q86WV6); experiment: ISG54 luciferase reporter assay in HepG2/STING/ISG54Luc cells; assay type: cell-based
[2] = tested on: cGAS-STING pathway; experiment: ISG54 luciferase reporter assay in HepAD38/cGAS-STING/ISG54Luc cells; assay type: cell-based, human; details: 4 h treatment
[3] = molecular target: human STING with truncation of carboxyl-terminal domain (CTD) (Homo sapiens, UniProt Q86WV6); experiment: ISG54 luciferase reporter assay in HepAD38/cGAS-STINGΔC/ISG54Luc cells; assay type: cell-based; details: 4 h treatment
Sequence of human STING with truncation of carboxyl-terminal domain (CTD) (Q86WV6 1-340 limits assumed): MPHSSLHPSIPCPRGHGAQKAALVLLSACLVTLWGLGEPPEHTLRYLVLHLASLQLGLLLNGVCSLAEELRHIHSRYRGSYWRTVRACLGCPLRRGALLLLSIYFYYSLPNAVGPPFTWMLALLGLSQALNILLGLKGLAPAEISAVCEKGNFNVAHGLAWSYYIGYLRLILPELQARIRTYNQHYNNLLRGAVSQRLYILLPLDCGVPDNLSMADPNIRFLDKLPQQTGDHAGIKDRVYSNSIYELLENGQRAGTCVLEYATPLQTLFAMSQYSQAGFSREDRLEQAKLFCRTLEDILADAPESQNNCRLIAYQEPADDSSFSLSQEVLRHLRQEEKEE

[4] = tested on: HepAD38/cGAS-STING/ISG54Luc cells; assay type: cell-based; details: human, 4 h
[5] = molecular target: T1, human STING; experiment: Cytokine mRNA induction; assay type: cell-based; details: 6 h, qRT-PCR
[6] = molecular target: T2, mouse STING (Mus musculus, UniProt Q3TBT3); experiment: IFN-β mRNA induction; assay type: cell-based; details: HepG2/mSTING cells, 6 h, qRT-PCR
T2 sequence (Q3TBT3 1-378): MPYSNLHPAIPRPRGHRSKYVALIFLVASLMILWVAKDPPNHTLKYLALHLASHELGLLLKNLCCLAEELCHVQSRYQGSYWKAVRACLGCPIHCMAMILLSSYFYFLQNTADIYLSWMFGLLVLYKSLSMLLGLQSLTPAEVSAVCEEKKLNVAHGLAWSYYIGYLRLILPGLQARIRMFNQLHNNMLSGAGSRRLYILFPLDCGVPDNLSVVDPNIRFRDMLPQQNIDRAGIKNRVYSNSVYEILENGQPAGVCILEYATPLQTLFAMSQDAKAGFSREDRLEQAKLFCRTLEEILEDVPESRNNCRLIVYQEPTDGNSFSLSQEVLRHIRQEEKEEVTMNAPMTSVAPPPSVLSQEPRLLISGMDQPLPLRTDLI

[7] = molecular target: T1, human STING; experiment: IRF3 phosphorylation; assay type: cell-based; details: 100 μM, 2 h; HepG2/STING vs HepG2/STINGΔC cells
[8] = tested on: THF cells; experiment: Cytotoxicity in THF cells; assay type: cell-based, human
[9] = tested on: Dengue virus (DENV); assay type: cell-based, dengue virus (serotype 2, New Guinea C strain); details: THF cells pre-treated 8 h
[10] = tested on: Yellow fever virus (YFV); assay type: cell-based, Yellow fever virus (17D strain); details: THF cells pre-treated 8 h
[11] = tested on: Zika virus (ZIKV); experiment: Antiviral assay, pre-treated THF cells infected with ZIKV; assay type: cell-based, Zika virus (PRVABC59 strain); details: THF cells pre-treated 8 h
[12] = tested on: PBMC-derived dendritic cells; experiment: CD80 expression by flow cytometry in PBMC-derived dendritic cells; assay type: cell-based, human; details: BNBC 50 μM or LPS 10 μg/ml, 48 h; gated from CD11c+ cells
[13] = Aqueous solubility in PBS; assay type: physicochemical
[14] = Metabolic stability in human liver microsomes; assay type: in vitro ADME
[15] = Metabolic stability in mouse liver microsomes; assay type: in vitro ADME
[16] = Caco-2 permeability; assay type: in vitro ADME; details: human
[17] = tested on: cytochrome P450 (Cyp) enzymes (CYP1A2, 2A6, 2B6, 2C8, 2C9, 2C19, 2D6, CYP2E1 and 3A4); experiment: Cytochrome P450 inhibition panel; assay type: in vitro ADME; details: inhibition = greater than 50% inhibition at 10 μM
[18] = Plasma protein binding, human; assay type: in vitro ADME
[19] = Plasma protein binding, mouse; assay type: in vitro ADME
[20] = tested on: THF cells; experiment: Cytokine response
[21] = tested on: human PBMCs; experiment: Cytokine mRNA induction; details: 6 h, qRT-PCR
[22] = tested on: PBMC-derived dendritic cells; experiment: Cytokine mRNA induction; details: BNBC 100 μM or LPS 10 μg/ml, 6 h
[23] = MOI 0.1, 48 h, qRT-PCR, maximal reduction

T1 sequence (Q86WV6 whole entry): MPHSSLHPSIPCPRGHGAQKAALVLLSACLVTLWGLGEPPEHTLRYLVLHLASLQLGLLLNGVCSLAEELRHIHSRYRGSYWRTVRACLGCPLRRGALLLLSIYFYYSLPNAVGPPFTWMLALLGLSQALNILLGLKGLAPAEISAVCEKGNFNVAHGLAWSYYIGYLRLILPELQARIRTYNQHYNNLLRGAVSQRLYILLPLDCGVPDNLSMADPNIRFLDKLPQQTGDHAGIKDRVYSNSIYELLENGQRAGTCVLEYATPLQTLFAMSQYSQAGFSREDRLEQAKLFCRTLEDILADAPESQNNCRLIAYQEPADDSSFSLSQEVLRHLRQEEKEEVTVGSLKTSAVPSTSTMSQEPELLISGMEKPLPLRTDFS

## O=C(Nc1cccc2ccccc12)c1cc2c(cc1Br)OCO2 [BNBC, 6-bromo-N-(naphthalen-1-yl)benzo[d][1,3]dioxole-5-carboxamide]
[1]; HepG2/STING/ISG54 reporter cells lacking cGAS
  Induction of ISG54 promoter-driven luciferase expression: concentration-dependently induced ISG54 driven luciferase expression
[1]; Minimum Effective Concentration to induce 5-fold luciferase activity relative to mock-treated control, HepG2/STING/ISG54Luc cells, 4 h
  MinEC5X: 2.2 µM
[1]; maximum fold of luciferase induction, HepG2/STING/ISG54Luc cells, 4 h
  Maximum induction (fold): 20.5 fold
[2]
  Induction of ISG54-driven luciferase expression: induced luciferase expression in a concentration-dependent manner
[3]
  Induction of ISG54-driven luciferase expression: did not induce luciferase expression
[4]
  Cytotoxicity: concentration up to which no cytotoxicity was detected: > 200 µM
[5]; HepG2/STING cells
  Induction of IFN-β, IL29 (IFN-λ1) and TNF-α mRNA expression: concentration-dependently induced IFN-β, IL29 (IFN-λ1) and TNF-α mRNA expression
[6]
  Induction of IFN-β mRNA expression: not in parental HepG2 cells, HepG2/STINGΔC cells and HepG2-derived cell line expressing mouse STING (HepG2/mSTING)
[7]
  IRF3 phosphorylation and nuclear translocation: only induced IRF3 phosphorylation and nuclear translocation in HepG2/STING cells
[8]
  Cytotoxicity: absence of cytotoxicity
[9]; [23]
  Reduction of intracellular DENV RNA level: up to 90 fold
[10]; [23]
  Reduction of intracellular YFV RNA level: ≤ 150 fold
[11]; [23]
  Reduction of intracellular ZIKV RNA level: ≤ 800 fold
[12]
  Induction of CD80 expression: significantly induced expression of CD80
[13]; pH 4, aqueous buffer
  solubility: 3.57 µM (≈ 1.32 µg/mL)
[13]; pH 7.4, aqueous buffer
  solubility: 2.62 µM (≈ 0.97 µg/mL)
[14]
  half-life: 20 min
[15]
  half-life: 2.21 min
[16]
  Papp A→B: 14.5 ×10⁻⁶ cm/s
  Papp B→A: 5.98 ×10⁻⁶ cm/s
  efflux ratio: 0.41
[17]
  Cyp IC50 < 10 μM (number of Cyps/reactions inhibited out of 10): 5 out of 10 and 5/10
[18]
  fraction unbound: 0.0266
[19]
  fraction unbound: 0.0212
[20]; THF cells with knockout of STING, but not TRIF or IPS-1 (MAVS), 50 μM, 6 h
  Effect of STING knockout on compound-induced IFN-β mRNA expression: completely abolished
[20]; THF cells, mRNA 6 h, ELISA 18 h
  Induction of cytokine mRNA and IFN-β secretion: concentration-dependently induced IFN-β, IL-28A and IL-6 mRNA expression as well as secretion of IFN-β into culture media
[21]
  Induction of cytokine expression: efficiently induced expression of type I and type III IFN, but to a lesser extent, TNF-α
[22]
  Induction of cytokine mRNAs: efficiently induced the expression of IFN-β and IL-29 mRNAs and to a lesser extent, TNF-α and IL-6 mRNAs

## Cc1ccc2c(=O)c3cccc(CC(=O)O)c3oc2c1C [DMXAA, 5’,6’-dimethylxanthenone-4-acetic acid, reference compound]
[5]; HepG2/STING cells expressing human STING
  Induction of IFN-β mRNA expression: not in HepG2/STING cells

## O=C(NCc1ccco1)c1ccc2c(c1)N(Cc1c(F)cccc1Cl)C(=O)CS2 [G10, reference compound]
[9]; compared with BNBC
  Reduction of DENV RNA: reduced virial RNAs in similar potencies
[10]; compared with BNBC
  Reduction of YFV RNA: reduced virial RNAs in similar potencies
[11]; compared with BNBC
  Reduction of ZIKV RNA: reduced virial RNAs in similar potencies

## Lipopolysaccharides [LPS, reference compound]
[12]
  Induction of CD80 expression: significantly induced expression of CD80
[22]
  Induction of cytokine mRNAs: efficiently induced the expression of IFN-β and IL-29 mRNAs and to a lesser extent, TNF-α and IL-6 mRNAs
